Measurements from PMC3548978 (Analytical and bioanalytical chemistry, 2012).

Experiments:
Type in all cases: biochemical
[1] = biological target: p300 (Homo sapiens, UniProt Q09472); experiment: radioisotope […]Ac-CoA HAT assay, […] probe, […] activity lost; conditions: read-out: % activity lost at 50 μM
[2] = biological target: Tip60 (Homo sapiens, UniProt Q92993); experiment: CPM fluorescent HAT assay with H4-20 and Ac-CoA
[3] = biological target: T1, PCAF (Homo sapiens, UniProt Q92831); experiment: CPM fluorescent HAT assay with H3-20 and Ac-CoA
T1 sequence (Q92831 493-658): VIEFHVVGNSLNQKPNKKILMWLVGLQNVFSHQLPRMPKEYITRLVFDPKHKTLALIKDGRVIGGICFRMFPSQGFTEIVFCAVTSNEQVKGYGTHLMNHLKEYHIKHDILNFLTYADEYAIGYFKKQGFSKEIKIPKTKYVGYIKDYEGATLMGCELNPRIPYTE

[4] = biological target: T1, PCAF; experiment: radioisotope […]Ac-CoA HAT assay, […] probe

Sequence of p300 (Q09472 2-2414): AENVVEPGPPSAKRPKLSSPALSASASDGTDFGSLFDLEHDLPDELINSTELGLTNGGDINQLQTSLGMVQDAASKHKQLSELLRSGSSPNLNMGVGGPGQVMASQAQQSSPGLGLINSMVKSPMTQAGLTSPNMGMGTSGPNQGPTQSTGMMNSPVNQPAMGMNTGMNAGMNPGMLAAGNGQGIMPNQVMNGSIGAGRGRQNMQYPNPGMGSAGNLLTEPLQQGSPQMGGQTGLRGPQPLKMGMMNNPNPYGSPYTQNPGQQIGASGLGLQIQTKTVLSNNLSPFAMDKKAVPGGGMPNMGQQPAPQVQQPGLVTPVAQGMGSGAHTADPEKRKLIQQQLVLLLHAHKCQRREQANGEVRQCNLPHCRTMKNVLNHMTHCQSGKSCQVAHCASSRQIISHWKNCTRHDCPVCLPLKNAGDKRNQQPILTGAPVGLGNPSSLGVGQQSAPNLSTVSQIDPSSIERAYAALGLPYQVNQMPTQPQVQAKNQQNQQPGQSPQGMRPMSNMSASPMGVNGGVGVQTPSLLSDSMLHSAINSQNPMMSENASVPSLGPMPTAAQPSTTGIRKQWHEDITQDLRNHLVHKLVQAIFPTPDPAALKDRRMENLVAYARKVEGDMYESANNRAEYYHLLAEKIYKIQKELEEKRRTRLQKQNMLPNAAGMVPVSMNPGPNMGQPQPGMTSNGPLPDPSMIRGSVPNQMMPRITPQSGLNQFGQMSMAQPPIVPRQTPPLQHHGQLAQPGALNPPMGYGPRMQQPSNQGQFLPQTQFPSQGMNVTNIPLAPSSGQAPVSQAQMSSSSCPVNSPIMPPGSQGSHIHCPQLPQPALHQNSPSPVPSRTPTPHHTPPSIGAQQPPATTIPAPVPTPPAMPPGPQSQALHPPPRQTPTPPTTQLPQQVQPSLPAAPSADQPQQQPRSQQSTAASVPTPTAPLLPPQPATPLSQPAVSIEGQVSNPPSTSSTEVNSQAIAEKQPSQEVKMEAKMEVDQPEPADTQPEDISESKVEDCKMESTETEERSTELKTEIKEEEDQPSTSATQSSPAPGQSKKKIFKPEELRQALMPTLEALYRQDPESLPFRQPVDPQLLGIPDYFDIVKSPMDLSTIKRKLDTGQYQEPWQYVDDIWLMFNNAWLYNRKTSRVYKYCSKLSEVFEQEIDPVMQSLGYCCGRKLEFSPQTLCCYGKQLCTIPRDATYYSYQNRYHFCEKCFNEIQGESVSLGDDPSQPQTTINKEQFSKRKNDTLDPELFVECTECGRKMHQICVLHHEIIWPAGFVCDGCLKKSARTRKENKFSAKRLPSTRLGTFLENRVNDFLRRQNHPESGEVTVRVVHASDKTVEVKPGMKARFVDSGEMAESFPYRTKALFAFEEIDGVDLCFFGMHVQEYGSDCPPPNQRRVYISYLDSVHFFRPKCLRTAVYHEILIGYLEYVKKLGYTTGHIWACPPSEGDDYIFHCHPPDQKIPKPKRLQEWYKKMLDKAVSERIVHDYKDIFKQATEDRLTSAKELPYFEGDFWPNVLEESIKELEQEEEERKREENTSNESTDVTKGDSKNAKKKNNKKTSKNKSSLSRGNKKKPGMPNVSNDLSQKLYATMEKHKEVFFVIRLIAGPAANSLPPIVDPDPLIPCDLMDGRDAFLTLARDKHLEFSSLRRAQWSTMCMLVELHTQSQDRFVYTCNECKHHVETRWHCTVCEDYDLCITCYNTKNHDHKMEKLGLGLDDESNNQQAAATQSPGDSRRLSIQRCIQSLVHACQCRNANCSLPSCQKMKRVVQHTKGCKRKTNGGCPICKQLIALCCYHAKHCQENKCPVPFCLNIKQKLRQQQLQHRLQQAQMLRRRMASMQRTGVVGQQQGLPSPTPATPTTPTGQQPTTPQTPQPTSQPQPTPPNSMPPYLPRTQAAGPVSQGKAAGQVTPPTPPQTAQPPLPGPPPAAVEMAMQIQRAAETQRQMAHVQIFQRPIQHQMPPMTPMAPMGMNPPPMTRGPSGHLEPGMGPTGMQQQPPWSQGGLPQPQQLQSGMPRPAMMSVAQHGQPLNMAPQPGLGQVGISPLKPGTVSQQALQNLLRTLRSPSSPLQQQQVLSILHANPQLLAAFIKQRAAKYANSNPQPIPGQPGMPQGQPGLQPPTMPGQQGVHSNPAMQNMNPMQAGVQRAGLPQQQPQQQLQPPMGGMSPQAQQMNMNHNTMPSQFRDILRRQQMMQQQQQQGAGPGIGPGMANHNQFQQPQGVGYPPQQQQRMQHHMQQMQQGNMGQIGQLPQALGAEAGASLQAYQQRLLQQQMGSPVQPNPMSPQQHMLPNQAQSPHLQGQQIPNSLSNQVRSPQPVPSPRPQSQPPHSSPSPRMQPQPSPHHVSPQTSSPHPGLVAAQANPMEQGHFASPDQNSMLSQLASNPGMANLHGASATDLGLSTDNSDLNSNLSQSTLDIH
Sequence of Tip60 (Q92993 whole entry): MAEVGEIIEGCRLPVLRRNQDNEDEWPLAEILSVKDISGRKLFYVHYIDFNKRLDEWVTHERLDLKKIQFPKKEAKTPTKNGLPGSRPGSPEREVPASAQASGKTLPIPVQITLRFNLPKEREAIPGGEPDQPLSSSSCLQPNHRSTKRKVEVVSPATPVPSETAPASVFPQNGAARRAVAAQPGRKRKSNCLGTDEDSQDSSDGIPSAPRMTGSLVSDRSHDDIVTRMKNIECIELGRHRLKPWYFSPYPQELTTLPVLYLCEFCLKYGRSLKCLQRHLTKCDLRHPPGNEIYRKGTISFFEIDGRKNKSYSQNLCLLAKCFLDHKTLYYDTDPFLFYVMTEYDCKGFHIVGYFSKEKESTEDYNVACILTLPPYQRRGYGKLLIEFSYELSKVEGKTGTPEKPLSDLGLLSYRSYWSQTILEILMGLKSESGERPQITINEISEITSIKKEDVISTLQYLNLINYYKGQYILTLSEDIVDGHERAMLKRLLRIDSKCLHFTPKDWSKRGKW

O=C1C=CC(=O)N1c1ccc2ccc3cccc4ccc1c2c34 [P28]
inhibition at 50 µM [1]: > 90%

CC(=O)N[C@@H](CCCCNC(=O)CSCCNC(=O)CCNC(=O)[C@H](O)C(C)(C)COP(=O)(O)OP(=O)(O)OC[C@H]1O[C@@H](n2cnc3c(N)ncnc32)[C@H](O)[C@@H]1OP(=O)(O)O)C(N)=O [Lys-CoA]
IC50 [2]: 26 µM
IC50 [3]: 96 µM

CCN(CC)c1ccc2c(C)c(-c3ccc(N4C(=O)C=CC4=O)cc3)c(=O)oc2c1 [CPM]
inhibition at 50 µM [1]: > 90%
radioisotope [14C]Ac-CoA HAT assay, 50 μM probe [4]: Several compounds (e.g. CPM and P28) also considerably inhibited the activity of PCAF.
